Test results published in PubChem BioAssay (NCI).
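These data come from cells grown in 96-well plates and exposed to compound for 48 hours at five concentrations. Abbreviation: GI50, concentration required for 50% inhibition of growth. TGI: total growth inhibition.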

Assays:
Test in all cases: DTP human tumour cell line panel, 48 h
[1] = system: MOLT-4 leukemia
[2] = system: NCI-H226 lung
[3] = system: NCI-H23 lung
[4] = system: NCI-H460 lung
[5] = system: NCI-H522 lung
[6] = system: OVCAR-3 ovarian
[7] = system: OVCAR-4 ovarian
[8] = system: OVCAR-5 ovarian
[9] = system: OVCAR-8 ovarian
[10] = system: PC-3 prostate
[11] = system: RPMI-8226 leukemia
[12] = system: RXF 393 renal
[13] = system: SF-268 CNS
[14] = system: SF-295 CNS
[15] = system: SF-539 CNS
[16] = system: SK-MEL-2 melanoma
[17] = system: SK-MEL-28 melanoma
[18] = system: SK-MEL-5 melanoma
[19] = system: SK-OV-3 ovarian
[20] = system: SN12C renal
[21] = system: SNB-19 CNS
[22] = system: SR leukemia
[23] = system: SW-620 colon
[24] = system: T-47D breast
[25] = system: TK-10 renal
[26] = system: U251 CNS
[27] = system: UACC-257 melanoma
[28] = system: UACC-62 melanoma
[29] = system: UO-31 renal

Compound: Cc1ccc(C(=O)CSc2nc3ccc(F)cc3c(=O)n2-c2ccc(Cl)cc2)cc1
- TGI [1]: > 100 µM
- GI50 [2]: 3.13 µM
- TGI [2]: 24.9 µM
- GI50 [3]: > 100 µM
- TGI [3]: > 100 µM
- GI50 [4]: 10.3 µM
- TGI [4]: > 100 µM
- GI50 [5]: > 100 µM
- TGI [5]: > 100 µM
- GI50 [6]: > 100 µM
- TGI [6]: > 100 µM
- GI50 [7]: 9.45 µM
- TGI [7]: > 100 µM
- GI50 [8]: > 100 µM
- TGI [8]: > 100 µM
- GI50 [9]: 7.89 µM
- TGI [9]: > 100 µM
- GI50 [10]: > 100 µM
- TGI [10]: > 100 µM
- GI50 [11]: > 100 µM
- TGI [11]: > 100 µM
- GI50 [12]: 4.89 µM
- TGI [12]: 32.6 µM
- GI50 [13]: 25.3 µM
- TGI [13]: > 100 µM
- GI50 [14]: 3.51 µM
- TGI [14]: 21.4 µM
- GI50 [15]: 5.08 µM
- TGI [15]: 47.4 µM
- GI50 [16]: > 100 µM
- TGI [16]: > 100 µM
- GI50 [17]: > 100 µM
- TGI [17]: > 100 µM
- GI50 [18]: > 100 µM
- TGI [18]: > 100 µM
- GI50 [19]: 39.1 µM
- TGI [19]: > 100 µM
- GI50 [20]: > 100 µM
- TGI [20]: > 100 µM
- GI50 [21]: 4.93 µM
- TGI [21]: 73.8 µM
- GI50 [22]: > 100 µM
- TGI [22]: > 100 µM
- GI50 [23]: > 100 µM
- TGI [23]: > 100 µM
- GI50 [24]: > 100 µM
- TGI [24]: > 100 µM
- GI50 [25]: 98.1 µM
- TGI [25]: > 100 µM
- GI50 [26]: 10.8 µM
- TGI [26]: > 100 µM
- GI50 [27]: > 100 µM
- TGI [27]: > 100 µM
- GI50 [28]: > 100 µM
- TGI [28]: > 100 µM
- GI50 [29]: 37 µM
- TGI [29]: > 100 µM
